The subject of test [1] is U87 cells. As to the kind of experiment: WST-1 cell proliferation assay, U87. It counts as cell-based, human. Conditions: 48 hours, 3, 5, 10, 30 or 50 mM. How it is done:
(§1) The cell proliferation ability in medium alone (control) and 48 hours after administration of D-glucose or D-allose was compared by WST-1 assay. U251 cells or U87 cells, as cultured human brain tumor cells, were cultured for 48 hours without administration of a sugar (control) or with addition of D-allose or D-glucose at different concentrations (3, 5, 10, 30 or 50 mM), and then analyzed by WST-1 assay to compare the effects on cell proliferation.

Test [2] deals with PK-1 pancreatic cancer cells. As to the kind of experiment: Apoptosis by flow cytometry with annexin V staining, PK-1. It counts as cell-based, human. Conditions: 50 mM. Here is the method:
Apoptosis was evaluated by flow cytometry using annexin V staining.
(In flow cytometry, cells or beads pass a laser one at a time.)

For a further test, the system named is brain tumor cells. As to the kind of experiment: CytoTell fluorogenic probe cell proliferation monitoring. Conditions: 50 mM; 96 hours after 24 hours probe uptake. It counts as cell-based, human. Here is the method:
Next, CytoTell™, a fluorogenic probe for flow cytometry which is recently being used as a cell proliferation monitoring reagent, was taken up into the brain tumor cells for 24 hours, and the cells were allowed to stand for 96 hours either without administration of a sugar (control) or with administration of 50 mM D-glucose and 50 mM D-allose, and attenuation of the fluorogenic probe intensity in the cells was evaluated (FIG. 4-1).

Test [3] deals with U251 cells. As to the kind of experiment: Apoptosis by flow cytometry after annexin V staining, U251. It counts as cell-based, human. To be noted: doses that induce growth inhibition, 48 hours. How it is done:
(§2) The proportion of apoptotic cells in medium alone (control) and 48 hours after administration of D-glucose or D-allose was compared by flow cytometry analysis of the cells stained with annexin V. In order to elucidate the mechanism of the growth inhibition effect on brain tumor cells by D-allose, the cells were evaluated for apoptosis by flow cytometry after annexin V staining (FIG. 2).

The test system of test [4] is U87 cells. As to the kind of experiment: Apoptosis by flow cytometry after annexin V staining, U87. Type of test: cell-based, human. To be noted: doses that induce growth inhibition, 48 hours. How it is done:
as §2

In test [5] the test system is human pancreatic cancer cells PK-1. As to the kind of experiment: Metabolome analysis of central energy metabolism (C-SCOPE), PK-1. Type of test: cell-based. To be noted: 50 mM, 12 hours. How it is done:
(§3) Cultured human pancreatic cancer cells PK-1 and PANC-1 (5.0×10^6) were cultured for 12 hours at 37° C. in a 5% CO2 atmosphere, either without addition of a sugar (control) or with addition of 50 mM D-glucose or D-allose. Samples of both cells were then prepared according to the protocol provided by Human Metabolome Technologies, Inc. (Tsuruoka City, Yamagata Prefecture. Japan) and measured for 116 substances (see Table 1) related to central energy metabolism (glycolysis, TCA cycle, amino acid metabolism and nucleic acid metabolism) using an Analysis Service provided by the same company (C-SCOPE (https://humanmetabolome.com/jpn/service/analysis/cscope/)), after which principal component analysis (PCA) (FIG. 15), heat map analysis (FIGS. 16 to 19) and pathway map analysis (FIG. 20) were carried out based on the measurement results.

Test [6] relates to U251 cells. Briefly: Cell cycle evaluation by PI/RNase flow cytometry, U251. Type of test: cell-based, human. Conditions: 50 mM, 24 hours. How it is done: (§4) The proportion of cells in each cell cycle in medium alone (control) and 48 hours after administration of D-glucose or D-allose was compared by flow cytometry analysis.
(§5) Considering the possibility that growth inhibition of brain tumor cells may be caused by arrest of the cell cycle by D-allose, flow cytometry (FACS analysis) was carried out to identify changes in the cell cycle (see Yamaguchi F, Takata M. Kamitori K, et al. Rare sugar D-allose induces specific up-regulation of TXNIP and subsequent G1 cell cycle arrest in hepatocellular carcinoma cells by stabilization of p27kip1. Int J Oncol. 2008; 32(2):377-385). Specifically, the cell cycle was evaluated by Propidium Iodide (PI)/RNase Staining Solution (Cell Signaling Technology). The cells were cultured for 24 hours using DMEM, 50 mM D-glucose or 50 mM D-allose. The cultured cells were then recovered using trypsin and washed twice with PBS, and then fixed with 70% ethanol overnight at −20° C. After washing with PBS, the cells were stained in a dark room at room temperature for 30 minutes using 500 μl of PI reagent, washed with PBS, and then monitored for luminescence at 617 nm by flow cytometry. The data were analyzed using Kaluza analysis software (Ver. 1.2. Beckman Coulter), and the effects on the cell cycle were evaluated based on changes in the cell distribution rate at each phase of the cell cycle.

The subject of test [7] is U87 cells. Briefly: Cell cycle evaluation by PI/RNase flow cytometry, U87. It counts as cell-based, human. To be noted: 50 mM, 24 hours. How it is done:
as §4, §5

In test [8] the test system is human pancreatic cancer cells PANC-1. As to the kind of experiment: Metabolome analysis of central energy metabolism (C-SCOPE), PANC-1. It counts as cell-based. Conditions: 50 mM, 12 hours. How it is done: as §3
A further test relates to cell cycle. To be noted: reported (PTL 1); cited from earlier work.
For test [9], the system named is human pancreatic cancer cell line PK-1. Briefly: Cell cycle visualization with tFucci(CA)5, PK-1. Type of test: cell-based. Conditions: 50 mm, 0 to 84 hours. The text has this:
The human pancreatic cancer cell line PK-1 was transfected with tFucci(CA)5 (Plasmid #153521) (see Ando R., et al., Two new coral fluorescent proteins of distinct colors for sharp visualization of cell-cycle progression, bioRYiv, 2020, https://www.biorxiv.org/content/10.1101/2020.03.30.015156v2) purchased from Addgene (Massachusetts, USA), for cell cycle visualization. […] The cells were used to observe effects on the cell cycle of the human pancreatic cancer cell line PK-1 with and without addition of D-allose (50 mm).

A further test deals with cancer cell lines. To be noted: reported (NPL 5); cited from earlier work.
Test [10] concerns PK-1 pancreatic cancer cells. Briefly: Cell cycle evaluation by PI/RNase flow cytometry, PK-1. Type of test: cell-based, human. To be noted: 50 mM. How it is done: Considering the possibility that the growth inhibition effect on cultured human PK-1 pancreatic cancer cells by D-allose may be via arrest of the cell cycle, changes in the cell cycle were identified using flow cytometry (FACS analysis). Specifically, PK-1 cells were brought to a serum-starved state overnight and then fixed with 70% ethanol overnight at −20° C. For staining of the cellular DNA, the cells obtained as a centrifuged pellet were resuspended in 450 μL of propidium iodide (PI)/RNase solution (Cell Signaling Technology, Danvers, MA, USA), and cultured in a dark environment at room temperature for 30 minutes. Analysis was then carried out with a flow cytometer (Cytomics FC500 flow cytometry system, Beckman Coulter, Indianapolis, IN, USA) using 10,000 cells per sample.

The subject of another test is PK-1 cells. Briefly: WST-1 cell proliferation assay, PK-1. It counts as cell-based, human. To be noted: 48 hours. Here is the method: PK-1 cells, as cultured human pancreatic cancer cells, were cultured for 48 hours with addition of D-allose or D-glucose at 25 or 50 mM concentration, and then analyzed by WST-1 assay to compare the effects on cell proliferation. PK-1 cells, as cultured human pancreatic cancer cells, were cultured for 48 hours with addition of allitol or D-mannitol at 50 mM concentration, and then analyzed by WST-1 assay to compare the effects on cell proliferation.

Test [11] deals with cultured human PK-1 pancreatic cancer cells. Briefly: Cell cycle time course after nocodazole arrest and release, PK-1. It counts as cell-based. To be noted: 50 mM, after removal of 50 nM nocodazole (12 hours). How it is done: Culturing was carried out for 12 hours in the presence of 50 nM nocodazole, and the cell cycle was arrested. The nocodazole was removed to restart the cell cycle, while administering medium alone (control) or D-glucose or D-allose (50 mM), after which samples were periodically taken and the cell cycle ratio was analyzed by flow cytometry.
Shown is the cell cycle ratio (G0/1 phase, S phase and G2/M phase) for cultured human pancreatic cancer cells PK-1 cultured with the schedule in FIG. 8.
Culturing was carried out according to the schedule in FIG. 8, except for administering D-mannitol or allitol instead of D-glucose or D-allose.
First, 50 nM of nocodazole was reacted with cultured human PK-1 pancreatic cancer cells for 12 hours to preemptively stop the cell cycle. The nocodazole was then removed from the culture solution to begin restart of the cell cycle, thus allowing periodic observation of the cell cycle from a reset state. The effect of D-allose on the speed of the cell cycle was investigated in detail under these experimental conditions.
Considering the possibility that the growth inhibition effect on cultured human PK-1 pancreatic cancer cells by allitol may be via arrest of the cell cycle, changes in the cell cycle were identified using flow cytometry (FACS analysis) by the same method as Example 2.

Test [12] has as its system glycolysis in cultured human PK-1 pancreatic cancer cells. Briefly: Glycolysis evaluation with XFe24 extracellular flux analyzer (OCR, ECAR). Type of test: cell-based. The text has this:
In the same manner as Example 2, an XFe24 extracellular flux analyzer (24-well) by Agilent Technologies (previously Seahorse Bioscience) was used to measure the oxygen consumption rate (OCR value) and extracellular acidification rate (ECAR value) of cultured human PK-1 pancreatic cancer cells and examine effects on the glycolysis.

Test [13] deals with U251 cells. As to the kind of experiment: WST-1 cell proliferation assay, U251. Type of test: cell-based, human. Conditions: 48 hours, 3, 5, 10, 30 or 50 mM. Here is the method:
as §1
(Tetrazolium assays rely on reduction of a dye to a coloured formazan, in cell work by metabolically active cells.)

The conditions of test [14]: known (PTL 2); cited from earlier work.

Here are results for two compounds from patent publication US20250082658A1, “CELL PROLIFERATION RETARDANT, COSMETIC CONTAINING SAME, AND CELL PROLIFERATION RETARDATION METHOD” (NATIONAL UNIVERSITY CORPORATION KAGAWA UNIVERSITY, priority 2022, published 2025).

The structures appear in SMILES notation.

In the case of `O=C[C@H](O)[C@H](O)[C@H](O)[C@H](O)CO` [D-allose], in the test on U87 cells [1], the “cell proliferation ability (WST-1)” value is “dose-dependent cell growth inhibitory effect”. For the same compound, in [2], the “apoptosis (annexin V)” value was “apoptosis was not produced”. For the same compound, in the test on brain tumor cells, the “attenuation of fluorogenic probe intensity in the cells” value was “notably inhibited attenuation of fluorescent probe intensity”. Also, the “induction of apoptosis (annexin V)” value in the test with U251 cells [3] is on record as “apoptosis is not induced”. For the same compound, the “induction of apoptosis (annexin V)” value in the test with U87 cells [4] is on record as “apoptosis is not induced”. In addition, in test [5], the “fructose 1,6-diphosphate” value is on record as “reducing”, the “fructose 1-phosphate in the polyol pathway” value is “increased”, the “fructose 6-phosphate in the glycolysis” value is listed as “increased” and the “glucose 6-phosphate in the glycolysis” value is on record as “increased”. For the same compound, in test [5], the “intracellular metabolic profile (PCA, heat map)” value is reported as “significantly altered intracellular metabolic profile”. Besides, the “arrest of the cell cycle” value with U251 cells [6] is on record as “did not induce arrest of the cell cycle”. The “arrest of the cell cycle” value with U87 cells [7] is on record as “did not induce arrest of the cell cycle”. In test [8], the “fructose 1,6-diphosphate” value is given as “reducing”, the “fructose 1-phosphate in the polyol pathway” value is “increased”, the “fructose 6-phosphate in the glycolysis” value is on record as “increased” and the “glucose 6-phosphate in the glycolysis” value was “increased”. Further, the “intracellular metabolic profile (PCA, heat map)” value in test [8] was “significantly altered intracellular metabolic profile”. Further, the “G2 phase of the cell cycle” value in the test with cell cycle is given as “delaying the “G2 phase” of the cell cycle”. Moreover, the “effect on the cell cycle (tFucci(CA)5 fluorescence microscopy)” value in test [9] is listed as “delay the cell cycle, primarily at transition from the G1 phase to the S phase”. The “proliferation of cancer cell lines” value with cancer cell lines was “can inhibit proliferation of cancer cell lines”. Also, the G0/G1 phase ratio result in test [10] is “slight increase”. The “cell proliferation (WST-1)” value with PK-1 cells (25 or 50 mM) was “exhibited a cell growth inhibitory effect”. For the same compound, in [11], the “transition from the G0/1 phase to the S phase” value is given as “significant delaying of transition from the G0/I phase to the S phase” and the “transition to the G2/M phase” value is recorded as “This delaying effect was also exhibited for transition to the G2/M phase”. For the same compound, in [12] (50 mM for 16 hours), the “glycolysis in the cells” value is given as “notably inhibited the glycolysis” and the “glycolytic capacity, or its reserve capacity” value is reported as “lowered”. Moreover, in the test with U251 cells [13], the “cell proliferation ability (WST-1)” value is “dose-dependent cell growth inhibitory effect”.
For `OC[C@@H](O)[C@@H](O)[C@@H](O)[C@@H](O)CO` [allitol, (2S,3S,4R,5R)-hexane-1,2,3,4,5,6-hexaol], the fat accumulation entry in [14] was “fat accumulation-inhibiting effect”. Further, in test [2], the “apoptosis (annexin V)” value was “no apoptosis had occurred”. Moreover, the “cell proliferation (WST-1)” value in the test with PK-1 cells (50 mM) is given as “exhibited a cell proliferation inhibiting effect”. Also, in test [11], the “transition from the G0/1 phase to the S phase” value was “significantly delayed the transition from the G0/1 phase to the S phase” and the “transition to the G2/M phase” value is given as “This delaying effect was also exhibited for transition to the G2/M phase”. Besides, in [12] (50 mM for 18 hours), the “glycolysis in the cells” value is given as “inhibited the glycolysis” and the “glycolytic capacity, or its reserve capacity” value was “significantly lowered”.
